Measured values taken from PubChem BioAssay AID1918994 (Molecular Pharmacology Branch, DTP, NCI, 2023).

Test system: 292921-168-R-J2-PDC complex spheroid growth
Assay: Anticancer human tumor 292921-168-R-J2-PDC patient-derived pancreatic carcinoma cell line growth inhibition [AhR]
Conditions: for IC50: curve of first compound; for viability, T/C: stronger effect = lower value
Text: Multicellular complex tumor spheroid response to aryl hydrocarbon receptor antagonists in combination with a variety of drugs and investigational agents in selected tumor cell lines
The current study was undertaken to assess response to aryl hydrocarbon receptor antagonists in combination with standard-of-care drugs and investigational agents in solid tumor complex spheroid models. Complex spheroids include a stromal component modeled by human endothelial cells (HUVEC) and fibroblasts modeled by human mesenchymal stem cells (MSCs). The concentration ranges selected for each drug and investigational agent were based upon clinically achievable concentrations if the clinical Cmax of the agent was known.
Compounds. The drugs and investigational agents: BAY 2416964 (NSC825713), GNF351 (NSC835774), CH-223191 (NSC835775), CPI-455 (NSC825282), aza-TdCyd (NSC777586), decitabine (NSC127716), belinostat (NSC758774), entinostat (NSC756642), pevonedistat (NSC761192), tazemetostat (NSC777109), talazoparib (NSC765396), olaparib (NSC753686), selinexor (NSC780203), nedisertib (M3814, NSC802822), bortezomib (NSC756655), venetoclax (NSC766270), doxorubicin (NSC123127), elimusertib (BAY189344, NSC800525), ceralasertib (AZD6738, NSC777638), TAK-243 (NSC785004), alisertib (NSC759677), etoposide (NSC141540), topotecan (NSC609699), eribulin (NSC707389), gemcitabine (NSC613327), carboplatin (NSC241240), cisplatin (NSC119875), and SN-38 (NSC673596) were obtained from the National Cancer Institute (NCI) Developmental Therapeutics Program Chemical Repository (32). The FDA-approved anticancer drug set is available from the Developmental Therapeutics Program at https://dtp.cancer.gov/organization/dscb/obtaining/available plates.htm. […] The stock solutions were prepared in dimethyl sulfoxide (DMSO, Sigma-Aldrich, St. Louis, MO, cat. D2650), except for the platinum compounds which were prepared in saline (Quality Biological, Gaithersburg, MD, cat. 114-055-101), at 800-fold the tested concentration and stored at -70 degrees C prior to their use. All drugs and investigational agents were tested over a range starting from a high concentration at or near the clinical Cmax and decreasing in half-log increments. If the clinical Cmax for an agent had not been determined, the highest concentration tested was 10 microM (Table 1).
Cell Culture. All cells were maintained in an incubator at 37 degrees C and 5% CO2 with 95% humidity. The PDC lines were cultured according to standard operating procedures established by the NCI PDMR (https://pdmr.cancer.gov). Briefly, all PDCs were thawed and cultured in Matrigel-coated flasks prepared with a working solution of 1X Ham's F-12 nutrient mix, without supplementation (Invitrogen, Waltham, MA, cat. 11765054), 100 U/mL penicillin-streptomycin (Invitrogen, cat. 15140122), and 2.5% Matrigel (Corning Inc., Corning, NY, cat. 354248) for the first three passages. All PDCs were cultured in complete DMEM/F-12 media containing advanced DMEM/F-12 (Invitrogen, cat. 12634028), 4.9% defined fetal bovine serum, heat inactivated (HyClone Laboratories Inc., Logan, UT, cat. SH30070.03HI), 389 ng/mL hydrocortisone (Sigma-Aldrich, cat. H4001), 9.7 ng/mL human EGF recombinant protein (Invitrogen, cat. PHG0313), 23.4 microg/mL adenine (Sigma-Aldrich, cat. A2786), 97.3 U/mL penicillin-streptomycin (Invitrogen, cat. 15140122), 1.9 mM L-glutamine (Invitrogen, cat. 25030081), and 9.7 microM Y-27632 dihydrochloride (Tocris Bioscience, Bristol, United Kingdom, cat. 1254). The PDCs were cultured in complete DMEM/F12 media without 10 microM Y-27632 dihydrochloride for at least two passages prior to the screen. The established cell lines NCI-H1341 and […] were cultured in DMEM/F-12, HEPES (Invitrogen, cat. 11330032), 5% defined fetal bovine serum (HyClone Laboratories Inc., cat. SH30070.03), ITS premix universal culture supplement [insulin (5 microg/mL), transferrin (5 microg/mL), and selenious acid (5 ng/mL)] […]

[1] = second compound 0.1 µM, first compound 0.0316 µM
[2] = second compound 0.1 µM, first compound 0.1 µM
[3] = second compound 0.1 µM, first compound 0.316 µM
[4] = second compound 0.1 µM, first compound 1 µM
[5] = second compound 0.1 µM, first compound 3.16 µM
[6] = second compound 0.1 µM, first compound 10 µM
[7] = second compound 0.316 µM, first compound 0.0316 µM
[8] = second compound 0.316 µM, first compound 0.1 µM
[9] = second compound 0.316 µM, first compound 0.316 µM
[10] = second compound 0.316 µM, first compound 1 µM
[11] = second compound 0.316 µM, first compound 3.16 µM
[12] = second compound 0.316 µM, first compound 10 µM
[13] = second compound 1 µM, first compound 0.0316 µM
[14] = second compound 1 µM, first compound 0.1 µM
[15] = second compound 1 µM, first compound 0.316 µM
[16] = second compound 1 µM, first compound 1 µM
[17] = second compound 1 µM, first compound 3.16 µM
[18] = second compound 1 µM, first compound 10 µM
[19] = second compound 3.16 µM, first compound 0.0316 µM
[20] = second compound 3.16 µM, first compound 0.1 µM
[21] = second compound 3.16 µM, first compound 0.316 µM
[22] = second compound 3.16 µM, first compound 1 µM
[23] = second compound 3.16 µM, first compound 3.16 µM
[24] = second compound 3.16 µM, first compound 10 µM
[25] = second compound 10 µM, first compound 0.0316 µM
[26] = second compound 10 µM, first compound 0.1 µM
[27] = second compound 10 µM, first compound 0.316 µM
[28] = second compound 10 µM, first compound 1 µM
[29] = second compound 10 µM, first compound 3.16 µM
[30] = second compound 10 µM, first compound 10 µM
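Further: spheroids exposed to compounds for seven days after three days of growth.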

SMILES	IC50 (second compound 0.1 µM)	IC50 (second compound 0.316 µM)	IC50 (second compound 1 µM)	IC50 (second compound 3.16 µM)	IC50 (second compound 10 µM)	viability, T/C [1]	viability, T/C [2]	viability, T/C [3]	viability, T/C [4]	viability, T/C [5]	viability, T/C [6]	viability, T/C [7]	viability, T/C [8]	viability, T/C [9]	viability, T/C [10]	viability, T/C [11]	viability, T/C [12]	viability, T/C [13]	viability, T/C [14]	viability, T/C [15]	further results
Nc1ccccc1NC(=O)c1ccc(CNC(=O)OCc2cccnc2)cc1 + CC(CO)NC(=O)c1cc(-c2ccc(Cl)cc2)nn(-c2cnn(C)c2)c1=O	0.19 µM	0.148 µM	0.195 µM	0.116 µM	< 0.0316 µM	67.5%	58.8%	43%	31%	25.5%	9.72%	69%	51.2%	44.3%	28.1%	23.7%	10.4%	66.6%	60.7%	43.4%	viability, T/C [16]: 25.4%; viability, T/C [17]: 23.7%; viability, T/C [18]: 9.21%; viability, T/C [19]: 60.8%; viability, T/C [20]: 51.1%; viability, T/C [21]: 43.3%; viability, T/C [22]: 23.1%; viability, T/C [23]: 22.7%; viability, T/C [24]: 8.28%; viability, T/C [25]: 45.9%; viability, T/C [26]: 40.5%; viability, T/C [27]: 32.9%; viability, T/C [28]: 19.4%; viability, T/C [29]: 18.1%; viability, T/C [30]: 5.12%
O=C(c1cc(Cc2n[nH]c(=O)c3ccccc23)ccc1F)N1CCN(C(=O)C2CC2)CC1 + Cc1ccccc1N=Nc1ccc(NC(=O)c2ccnn2C)c(C)c1	> 10 µM	> 10 µM	> 10 µM	> 10 µM	4.55 µM	80%	84.9%	92.9%	95.8%	89.6%	75.5%	79.4%	90%	86.8%	85.8%	84.5%	65.7%	77.8%	67.8%	79.2%	viability, T/C [16]: 73.5%; viability, T/C [17]: 82.8%; viability, T/C [18]: 67.4%; viability, T/C [19]: 69.2%; viability, T/C [20]: 64.4%; viability, T/C [21]: 72.5%; viability, T/C [22]: 67.4%; viability, T/C [23]: 63.6%; viability, T/C [24]: 58.9%; viability, T/C [25]: 50.6%; viability, T/C [26]: 59.5%; viability, T/C [27]: 54.6%; viability, T/C [28]: 62.6%; viability, T/C [29]: 49.7%; viability, T/C [30]: 43.8%
O=C(c1cc(Cc2n[nH]c(=O)c3ccccc23)ccc1F)N1CCN(C(=O)C2CC2)CC1 + Cc1cncc(-c2nc(NCCc3c[nH]c4ccccc34)c3ncn(C(C)C)c3n2)c1	> 10 µM	> 10 µM	> 10 µM	> 10 µM	< 0.0316 µM	88.1%	94.8%	85.6%	89.7%	89.8%	70.3%	91.6%	89.3%	88.8%	84.7%	87.9%	65.6%	84.2%	80.6%	80.6%	viability, T/C [16]: 88.2%; viability, T/C [17]: 85.5%; viability, T/C [18]: 61.5%; viability, T/C [19]: 61.6%; viability, T/C [20]: 67.3%; viability, T/C [21]: 69.2%; viability, T/C [22]: 66%; viability, T/C [23]: 68.6%; viability, T/C [24]: 54.2%; viability, T/C [25]: 44%; viability, T/C [26]: 47%; viability, T/C [27]: 44.9%; viability, T/C [28]: 44.5%; viability, T/C [29]: 43.4%; viability, T/C [30]: 37.2%
